This note sets out measurements from PubChem BioAssay AID256 (DTP/NCI, 2004).

For the experiment, the system named is CD2F1 mice, L1210 leukemia ip, survival T/C. In words: NCI In Vivo Anticancer Drug Screen. Data for tumor model L1210 Leukemia (intraperitoneal) in CD2F1 (CDF1) mice. Particulars: higher = longer survival. The method in brief: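 Mice carrying a transplanted tumor received test compound or vehicle alone. The value is the measurement in the treated group divided by that in the vehicle-treated control group.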

Setting [1] is: endpoint: mean survival time, dose: 100.0 mg/kg/injection, schedule: Q04DX003 (ip), vehicle: saline with Tween-80.
[2] abbreviates: endpoint: mean survival time, dose: 200.0 mg/kg/injection, schedule: Q04DX003 (ip), vehicle: saline with Tween-80.
Where [3] appears, read: endpoint: mean survival time, dose: 400.0 mg/kg/injection, schedule: Q04DX003 (ip), vehicle: saline with Tween-80.
[4] abbreviates: endpoint: mean survival time, dose: 100.0 mg/kg/injection, schedule: Q01DX009 (ip), vehicle: saline with Tween-80.

“And” between values parts separate entries of the source, which are not always exact repeats. Identical values can stand only once. Toxic doses and inconclusive results are not listed.

As to `CC1OC1C(=O)C1(O)C(C)C(O)C23OC2(C(O)c2c(O)cccc2C3=O)C1O` (centres undefined), the T/C is, setting by setting: (endpoint: mean survival time, dose: 0.5 mg/kg/injection, schedule: Q01DX009 (ip), vehicle: Klucel (hydroxypropylcellulose) (HPC)) 98 % of control and 101 % of control; (endpoint: mean survival time, dose: 1.0 mg/kg/injection, schedule: Q01DX009 (ip), vehicle: Klucel (hydroxypropylcellulose) (HPC)) 98 % of control and 102 % of control (2×); (endpoint: mean survival time, dose: 2.0 mg/kg/injection, schedule: Q01DX009 (ip), vehicle: Klucel (hydroxypropylcellulose) (HPC)) 104 % of control and 105 % of control and 107 % of control; (endpoint: mean survival time, dose: 4.0 mg/kg/injection, schedule: Q01DX009 (ip), vehicle: Klucel (hydroxypropylcellulose) (HPC)) 114 % of control and 102 % of control and 103 % of control; (endpoint: mean survival time, dose: 8.0 mg/kg/injection, schedule: Q01DX009 (ip), vehicle: Klucel (hydroxypropylcellulose) (HPC)) 120 % of control and 104 % of control and 109 % of control; (endpoint: mean survival time, dose: 16.0 mg/kg/injection, schedule: Q01DX009 (ip), vehicle: Klucel (hydroxypropylcellulose) (HPC)) 104 % of control.

`CC(C)C12CCC(=O)C=C1CCCC2O` (centres undefined): the T/C was 100 % of control (endpoint: mean survival time, dose: 100.0 mg/kg/injection, schedule: Q04DX003 (ip), vehicle: saline sonified); 100 % of control (endpoint: mean survival time, dose: 200.0 mg/kg/injection, schedule: Q04DX003 (ip), vehicle: saline sonified); 97 % of control (endpoint: mean survival time, dose: 400.0 mg/kg/injection, schedule: Q04DX003 (ip), vehicle: saline sonified).

For `CCCCCCCCCCCCCCCCCS(=O)S(=O)O` (centres undefined), the T/C was 98 % of control under setting [1], 94 % of control under setting [2] and 93 % of control under setting [3].

Consider `O=CC(O)C(O)C(O)C(O)C(=O)O.O=CC(O)C(O)C(O)C(O)C(=O)O.[NH-]C1CCCCC1[NH-].[Pt+2]` (centres undefined), for which the T/C was 118 % of control (endpoint: mean survival time, dose: 1.56 mg/kg/injection, schedule: Q04DX003 (ip), vehicle: saline); 114 % of control (endpoint: mean survival time, dose: 3.12 mg/kg/injection, schedule: Q04DX003 (ip), vehicle: saline); 191 % of control and 184 % of control (endpoint: mean survival time, dose: 6.25 mg/kg/injection, schedule: Q04DX003 (ip), vehicle: saline); 212 % of control and 168 % of control and 213 % of control (endpoint: mean survival time, dose: 12.5 mg/kg/injection, schedule: Q04DX003 (ip), vehicle: saline); 274 % of control [middle of 4 runs] (endpoint: mean survival time, dose: 25.0 mg/kg/injection, schedule: Q04DX003 (ip), vehicle: saline); 154 % of control and 216 % of control and 330 % of control (endpoint: mean survival time, dose: 50.0 mg/kg/injection, schedule: Q04DX003 (ip), vehicle: saline). Further, the T/C was 104 % of control (endpoint: median survival time, dose: 3.12 mg/kg/injection, schedule: Q04DX003 (ip), vehicle: saline); 106 % of control (endpoint: median survival time, dose: 6.25 mg/kg/injection, schedule: Q04DX003 (ip), vehicle: saline); 106 % of control (endpoint: median survival time, dose: 12.5 mg/kg/injection, schedule: Q04DX003 (ip), vehicle: saline); 107 % of control (endpoint: median survival time, dose: 25.0 mg/kg/injection, schedule: Q04DX003 (ip), vehicle: saline); 111 % of control (endpoint: median survival time, dose: 50.0 mg/kg/injection, schedule: Q04DX003 (ip), vehicle: saline); 110 % of control (endpoint: median survival time, dose: 100.0 mg/kg/injection, schedule: Q04DX003 (ip), vehicle: saline). The T/C (endpoint: median survival time, dose: 200.0 mg/kg/injection, schedule: Q04DX003 (ip), vehicle: saline) is 116 % of control.

Take `O=C(Nc1ccc(OCC2=NCCN2)cc1)c1ccc(C(=O)Nc2ccc(OCC3=NCCN3)cc2)cc1`: the T/C is 102 % of control (endpoint: median survival time, dose: 3.12 mg/kg/injection, schedule: Q01DX009 (ip), vehicle: saline with Tween-80); 96 % of control (endpoint: median survival time, dose: 6.25 mg/kg/injection, schedule: Q01DX009 (ip), vehicle: saline with Tween-80); 98 % of control (endpoint: median survival time, dose: 12.5 mg/kg/injection, schedule: Q01DX009 (ip), vehicle: saline with Tween-80); 101 % of control (endpoint: median survival time, dose: 25.0 mg/kg/injection, schedule: Q01DX009 (ip), vehicle: saline with Tween-80); 98 % of control (endpoint: median survival time, dose: 50.0 mg/kg/injection, schedule: Q01DX009 (ip), vehicle: saline with Tween-80).

For `O=[N+]([O-])c1ccc(O)c(C[P+](c2ccccc2)(c2ccccc2)c2ccccc2)c1`, the T/C is 93 % of control under setting [4]; 95 % of control (endpoint: mean survival time, dose: 200.0 mg/kg/injection, schedule: Q01DX009 (ip), vehicle: saline with Tween-80); 102 % of control (endpoint: mean survival time, dose: 400.0 mg/kg/injection, schedule: Q01DX009 (ip), vehicle: saline with Tween-80).

As to `OCC1OC(n2ncc3c2ncn2ccnc32)C(O)C1O` (centres undefined), the T/C was 101 % of control (endpoint: mean survival time, dose: 12.5 mg/kg/injection, schedule: Q01DX005 (ip), vehicle: water); 101 % of control (endpoint: mean survival time, dose: 25.0 mg/kg/injection, schedule: Q01DX005 (ip), vehicle: water); 97 % of control (endpoint: mean survival time, dose: 50.0 mg/kg/injection, schedule: Q01DX005 (ip), vehicle: water); 97 % of control (endpoint: mean survival time, dose: 100.0 mg/kg/injection, schedule: Q01DX005 (ip), vehicle: water); 109 % of control (endpoint: mean survival time, dose: 200.0 mg/kg/injection, schedule: Q01DX005 (ip), vehicle: water).

For `CCN(CC)C(=O)C(C)C1CCC2C3CC=C4CC(OC(=O)c5cc([N+](=O)[O-])cc([N+](=O)[O-])c5)CCC4(C)C3CCC12C` (centres undefined), the T/C runs as follows: (endpoint: mean survival time, dose: 100.0 mg/kg/injection, schedule: Q01DX001 (ip), vehicle: saline with Tween-80) 94 % of control; (endpoint: mean survival time, dose: 200.0 mg/kg/injection, schedule: Q01DX001 (ip), vehicle: saline with Tween-80) 94 % of control; (endpoint: mean survival time, dose: 400.0 mg/kg/injection, schedule: Q01DX001 (ip), vehicle: saline with Tween-80) 98 % of control.

With `COc1ccc(S(=O)(=O)F)cc1NC(=O)COc1cccc(Cl)c1`, the T/C under setting [1] is 96 % of control, the T/C under setting [2] is 97 % of control and the T/C under setting [3] was 103 % of control.

Turning to `CCOCc1cc(C)[nH]c(=O)c1C#N`, the T/C was 96 % of control under setting [1] and 98 % of control under setting [2].

In the case of `COC(=O)c1cccn1C(=O)c1cc(OC)c(OC)cc1[N+](=O)[O-]`, the T/C runs as follows: (endpoint: mean survival time, dose: 50.0 mg/kg/injection, schedule: Q04DX002 (ip), vehicle: saline with Tween-80) 96 % of control; (endpoint: mean survival time, dose: 100.0 mg/kg/injection, schedule: Q04DX002 (ip), vehicle: saline with Tween-80) 92 % of control and 93 % of control; (endpoint: mean survival time, dose: 200.0 mg/kg/injection, schedule: Q04DX002 (ip), vehicle: saline with Tween-80) 96 % of control; (endpoint: mean survival time, dose: 400.0 mg/kg/injection, schedule: Q04DX002 (ip), vehicle: saline with Tween-80) 89 % of control.

Regarding `Nc1ncnc2c1ncn2C1OCC(O)C(O)C1O` (centres undefined), the T/C runs as follows: (endpoint: mean survival time, dose: 50.0 mg/kg/injection, schedule: Q01DX001 (ip), vehicle: saline) 101 % of control; (endpoint: mean survival time, dose: 100.0 mg/kg/injection, schedule: Q01DX001 (ip), vehicle: saline) 102 % of control; (endpoint: mean survival time, dose: 200.0 mg/kg/injection, schedule: Q01DX001 (ip), vehicle: saline) 101 % of control; (endpoint: mean survival time, dose: 400.0 mg/kg/injection, schedule: Q01DX001 (ip), vehicle: saline) 98 % of control.

Regarding `CCCCCCCC(=O)OCC(=O)[C@]1(O)Cc2c(O)c3c(c(O)c2[C@@H](OC2CC(N)C(O)C(C)O2)C1)C(=O)c1c(OC)cccc1C3=O` (some centres undefined), the T/C is, setting by setting: (endpoint: mean survival time, dose: 0.5 mg/kg/injection, schedule: Q01DX009 (ip), vehicle: water) 117 % of control; (endpoint: mean survival time, dose: 2.0 mg/kg/injection, schedule: Q01DX009 (ip), vehicle: saline sonified) 153 % of control; (endpoint: mean survival time, dose: 2.0 mg/kg/injection, schedule: Q01DX009 (ip), vehicle: saline with Tween-80) 211 % of control; (endpoint: mean survival time, dose: 2.0 mg/kg/injection, schedule: Q01DX009 (ip), vehicle: water) 151 % of control; (endpoint: mean survival time, dose: 3.0 mg/kg/injection, schedule: Q04DX003 (ip), vehicle: saline with Tween-80) 164 % of control; (endpoint: mean survival time, dose: 8.0 mg/kg/injection, schedule: Q01DX009 (ip), vehicle: saline with Tween-80) 90 % of control. In addition, the T/C (endpoint: mean survival time, dose: 20.0 mg/kg/injection, schedule: Q01DX001 (ip), vehicle: saline with Tween-80) was 161 % of control and the T/C (endpoint: mean survival time, dose: 20.0 mg/kg/injection, schedule: Q04DX003 (ip), vehicle: saline with Tween-80) is 104 % of control.

For the molecule `COC1CC(CC2CCC(C)C(C(C)C(=O)O)O2)OC2(OC(C)(C3CCC(C)(C4OC(C5OC(O)(CO)C(C)CC5C)CC4C)O3)CC2C)C1C` (centres undefined), the T/C runs as follows: (endpoint: mean survival time, dose: 0.31 mg/kg/injection, schedule: Q01DX009 (ip), vehicle: Klucel (hydroxypropylcellulose) (HPC)) 92 % of control; (endpoint: mean survival time, dose: 0.63 mg/kg/injection, schedule: Q01DX009 (ip), vehicle: Klucel (hydroxypropylcellulose) (HPC)) 106 % of control; (endpoint: mean survival time, dose: 1.25 mg/kg/injection, schedule: Q01DX009 (ip), vehicle: Klucel (hydroxypropylcellulose) (HPC)) 110 % of control; (endpoint: mean survival time, dose: 2.5 mg/kg/injection, schedule: Q01DX009 (ip), vehicle: Klucel (hydroxypropylcellulose) (HPC)) 106 % of control.

With `CCOC(C(=O)OC1CCN(C)CC1)(c1ccccc1)c1ccccc1`, the T/C (endpoint: mean survival time, dose: 25.0 mg/kg/injection, schedule: Q01DX009 (ip), vehicle: saline with Tween-80) was 98 % of control; the T/C (endpoint: mean survival time, dose: 50.0 mg/kg/injection, schedule: Q01DX009 (ip), vehicle: saline with Tween-80) is 98 % of control; the T/C under setting [4] was 93 % of control.
